Legend:
mouse target mRNA = assay: Activity assessment of HSC-LNP: liver target mRNA knock-down (QuantiGene) after IV injection of siRNA LNP (Table 1); assay type: in vivo, female Balb/C mice; settings: dose 0.025 mg/kg IV, 48h post-dose, relative to PBS control
Protocol: (§1) The lipid solution contained 4 components: a PEG-conjugated lipid, an ionizable lipid (e.g., a silicon lipid), cholesterol, and a phospholipid (e.g., DSPC). Lipid stocks were prepared using the lipid identities and molar ratios as described. The siRNA was diluted in 100 mM acetate, pH 4 buffer to prepare lipid nanoparticles (LNP) at a total lipid to siRNA weight ratio of approximately 10:1 to 20:1. Equal volumes of the lipid and nucleic acid solutions were blended at a flow rate of 400 mL/min through a T-connector, and diluted into PBS, pH 7.4. The ethanol was then removed and the external buffer replaced with Tris/NaCl buffer by dialysis. Following dialysis, the formulations were concentrated using VivaSpin concentrator units (MWCO 100,000) and filtered through a 0.2 μm pore sterile filter. Nucleic acid concentration was determined by the RiboGreen assay. Particle size and polydispersity were determined using a Malvern Nano Series Zetasizer.
(§2) Just prior to injection, the siRNA LNP stocks were filtered and diluted down to the required dosing concentration. At 48h post-dose (terminal timepoint), the animals were euthanized with a lethal dose of ketamine/xylazine. Half the left lateral lobe of the liver was collected into 1.5 mL RNALater and stored at 2-8° C. overnight. The next day, an approximately 20-25 mg piece of liver was homogenized and the liver lysate used in a QuantiGene Assay, testing for relative levels of mouse target mRNA and GAPDH expression. Data from each animal was normalized to the liver weight used in the assay, and then relative to the GAPDH signal; data is reported as the average % knock-down of each group (where the PBS control group is 100% gene expression, 0% knock-down).

reelin mRNA = assay: Reelin mRNA knock-down following IV administration of the LNP formulations (FIGS. 1-4); assay type: in vivo; settings: Balb/C mice (n=4); for dose giving equivalent potency in reelin mRNA knock-down (FIG. 1) / reelin mRNA knock-down in HSCs, specificity for HSCs (FIG. 2): 48 hours following IV administration
Protocol: as §1
as §2, with “Generally, the LNP formulations were injected intravenously at 0.025 mg/kg to female Balb/C mice (5-8 weeks old) to measure activity of the HSC-LNP. Just” for “Just”

[1] = Duration of action of LNP with minimally modified siRNA (FIG. 6); assay type: in vivo
[2] = Tolerability assessment of HSC-LNP: liver enzyme levels (FIGS. 5A-5B); assay type: in vivo, female Balb/C mice; settings: dose range up to 3 mg/kg IV
Protocol: Generally, the LNP formulations were injected intravenously at ˜0.03 to 3 mg/kg to female Balb/C mice (5-8 weeks old) to assess tolerability of the HSC-LNP. Just prior to injection, the siRNA LNP stocks were filtered and diluted down to the required dosing concentration. At 2h post-treatment, blood was collected via tail nicks and processed to plasma (for cytokine analysis by ELISA). At the terminal timepoint (24 h post-dose), blood was collected by cardiac puncture (target ≥800 μL) and sent to IDEXX for CRES 15 panel analysis (CBC/Diff & Clin Chem analysis).
Briefly, blood (˜300 uL) was collected into EDTA microtainer tubes, inverted 10× to mix the K2EDTA whole blood sample, and immediately stored at 4° C. to await same-day shipment to for hematology analysis. The remaining blood volume (˜500 uL) was collected into serum separator tubes and inverted 5× to mix the SST sample, then allowed to clot for 1-1.5h at room temp. The blood samples were centrifuged, and serum was collected for clinical chemistry analysis.

[3] = Clearance of LNP from mouse liver, biodegradable functionality (FIG. 7); assay type: in vivo
[4] = 24 hours following IV administration

Structure (SMILES): CCCCC/C=C\CCCO[Si](C)(CCCCN1CCC2(CC1)CCN(CCCC[Si](C)(OCCC/C=C\CCCCC)OCCC/C=C\CCCCC)CC2)OCCC/C=C\CCCCC [Compound 14]
- Percent knock-down (mouse target mRNA; Formulation 1.1:55 (DOPE)): 18%

Structure (SMILES): CCCCC/C=C\CCCO[Si](C)(CCCCN1CCC2(CC1)CCN(CCCC[Si](C)(OCCC/C=C\CCCCC)OCCC/C=C\CCCCC)CC2)OCCC/C=C\CCCCC [Compound 42]
- Percent knock-down (mouse target mRNA; Formulation 1.5:50 (DSPC)): 28%

Structure (SMILES): CCCCC/C=C\CCCC(CCC/C=C\CCCCC)C(CCC/C=C\CCCCC)OC(=O)CCCCCN(C)C (stereo not shown) [Compound 100, reference compound]
- dose required to achieve equivalent reelin mRNA knock-down (FIG. 4) (reelin mRNA; [4]): ~1 mg/kg
- dose giving equivalent potency in reelin mRNA knock-down (FIG. 1) (reelin mRNA): 0.1 mg/kg

Structure (SMILES): CCCCC/C=C\CCCO[Si](C)(CCCCN1CCC2(CC1)CCN(CCCC[Si](C)(OCCC/C=C\CCCCC)OCCC/C=C\CCCCC)C2)OCCC/C=C\CCCCC [Compound 39]
- Percent knock-down (mouse target mRNA; Formulation 1.5:50 (DSPC)): 81%

Structure (SMILES): CCCCC/C=C\CCCC(CCC/C=C\CCCCC)C(CCC/C=C\CCCCC)OC(=O)CCCCN(C)C (stereo not shown) [Compound 101, reference compound]
- reelin mRNA knock-down in HSCs, specificity for HSCs (FIG. 2) (reelin mRNA): no knock-down in HSCs

Structure (SMILES): CCCCC/C=C\CCCO[Si](C)(CCCCN1C[C@H]2CCCN(CCCC[Si](C)(OCCC/C=C\CCCCC)OCCC/C=C\CCCCC)[C@H]2C1)OCCC/C=C\CCCCC [Compound 43]
- Percent knock-down (mouse target mRNA; Formulation 1.5:50 (DSPC)): 0%

Structure (SMILES): CCCCC/C=C\CCCO[Si](C)(CCCCN(CC)CCCN(CC)CCCC[Si](C)(OCCC/C=C\CCCCC)OCCC/C=C\CCCCC)OCCC/C=C\CCCCC [Compound 29]
- Percent knock-down (mouse target mRNA; Formulation 1.1:55 (DSPC)): 29%

Structure (SMILES): CCCCC/C=C\CCCO[SiH](CCCCN1CCN(C)CCN(CCCC[Si](C)(OCCC/C=C\CCCCC)OCCC/C=C\CCCCC)CC1)OCCC/C=C\CCCCC [Compound 38]
- Percent knock-down (mouse target mRNA; Formulation 1.5:50 (DSPC)): 1%

Structure (SMILES): CCCCC/C=C\CCCO[Si](C)(CCCCN(C)CCCN(C)CCCC[Si](C)(OCCC/C=C\CCCCC)OCCC/C=C\CCCCC)OCCC/C=C\CCCCC [Compound 12, N1,N3-bis(4-(bis(((Z)-dec-4-en-1-yl)oxy)(methyl)silyl)butyl)-N1,N3-dimethylpropane-1,3-diamine]
- duration of action (FIG. 6) [1]: good duration of action
- tolerability: liver enzyme levels (FIGS. 5A-5B) [2]: no significant increases in liver enzyme levels
- dose at which maximum knock-down in HSCs is achieved (FIG. 3) (reelin mRNA; [4]): about 0.03 mg/kg
- dose required to achieve equivalent reelin mRNA knock-down (FIG. 4) (reelin mRNA; [4]): 0.03 mg/kg
- dose giving equivalent potency in reelin mRNA knock-down (FIG. 1) (reelin mRNA): 0.025 mg/kg
- reelin mRNA knock-down in HSCs, specificity for HSCs (FIG. 2) (reelin mRNA): high specificity for HSCs
- clearance of LNP from mouse liver (FIG. 7) [3]: cleared rapidly from mouse liver

Reference: patent publication US12673963B2, “Cationic lipids for lipid nanoparticle delivery of therapeutics to hepatic stellate cells” (GENEVANT SCIENCES GMBH, priority 2020, dated 2026)
